Structures can show the parent of a compound that is named as a salt. Where two headings read alike, the source gives them in different places. *1 amine or outer side, *2 acyl side, *3 side chain or, on linkers, in order; H or OH if unused. Where a SMILES comes first, the peptide text is derived from it. Bridges are numbered along the chain shown (N, C = ends). [ ]: non-standard residue; d: D form. The star is where a group is joined. hTyr(3S-OH,4S-OH,3'-OSO3H) = N[C@H](C(=O)O)[C@H](O)[C@@H](O)c1ccc(O)c(OS(=O)(=O)O)c1; Orn(4R-OH,5R-OH) = O=C([C@H](C[C@@H](O)[C@@H](O)N[*:3])N[*:1])[*:2]; Pro(3S-OH,4S-Me) = C[C@H]1CN[C@H](C(=O)O)[C@H]1O; X1 = CCCCCOc1ccc(-c2cc(-c3ccc(C(=O)*)cc3)no2)cc1; Gln(3R-OH) = NC(=O)C[C@@H](O)[C@H](N)C(=O)O; Hyp = O=C(O)[C@@H]1C[C@@H](O)CN1
How the values were obtained:
[1] = in vitro; conditions: African green monkey, CC50 cell toxicity
[2] = test system: SARS-CoV-2; test: microbe, parasite or virus in culture; type: cell-based; conditions: for Selectivity Index (SI): CC50/IC50
[3] = test system: SARS-CoV-2; test: Viral RNA by real-time RT-PCR with primer sets specific to N gene; type: cell-based; conditions: virus-infected cells treated with drug
Protocol: Bromhexine hydrochloride is an inhibitor of TMPRSS2, a cofactor of SARS-CoV-2 entry, and one group reported that the drug was effective on COVID-19 patients in a clinical trial. To further investigate whether bromhexine hydrochloride could inhibit SARS-CoV-2 replication, viral RNA was measured by real-time RT-PCR using primer sets specific to N gene of SARS-CoV-2.
Fig. 4 Suppression of SARS-CoV-2 replication by bromhexine hydrochloride. Cellular RNAs were isolated from cells infected by SARS-COV-2 and treated with bromhexine hydrochloride. The level of viral RNA was measured by real-time RT-PCR using primer sets specific to N gene of SARS-CoV-2.

[4] = test system: SARS-CoV-2; type: cell-based; conditions: Vero cells, 20 μM, MOI 0.5, three days after infection, microscopic observation
[5] = test system: Vero cells; conditions: read-out: CC50 cell toxicity, MTS, no virus, compounds from secondary screening
[6] = Vero cells, MTS, no virus, compounds from primary screening
[7] = compounds from primary screening
[8] = Severe acute respiratory syndrome coronavirus 2, Vero, 24 h, Vero cells, MOI 2, 24 h post-infection, compounds from primary screening, 100 μM to 0.16 μM, read-out: IC50 antiviral activity
[9] = compounds from secondary screening
[10] = Severe acute respiratory syndrome coronavirus 2, Vero, 24 h, Vero cells, MOI 2, 24 h post-infection, compounds from secondary screening, 0.08–50 μM, read-out: IC50 antiviral activity
[11] = Vero cells, MTS, no virus, compounds from secondary screening
[12] = Severe acute respiratory syndrome coronavirus 2, Vero, 24 h, read-out: IC50 antiviral activity
[13] = Vero cells, MOI 2, 24 h post-infection, compounds from secondary screening, 0.08–50 μM, read-out: IC50 antiviral activity

Structure (SMILES) | CC50 at 24 h [1, 6] | Selectivity Index (SI) [2, 7] | Selectivity Index (SI) [2, 9] | IC50 [2, 10] | CC50 at 24 h [1, 11] | other results
CC(C)(C)c1ccc(CN2CCN(C(c3ccccc3)c3ccc(Cl)cc3)CC2)cc1 (centres unmarked) [Buclizine] | > 100 µM | >5.1 | – | – | – | IC50 [2, 8]: 19.6 µM
Fc1ccc(C(c2ccc(F)cc2)N2CCN(C/C=C/c3ccccc3)CC2)cc1 [Flunarizine] | > 100 µM | – | – | – | – | –
CCCS(=O)(=O)Nc1ccc(F)c(C(=O)c2c[nH]c3ncc(-c4ccc(Cl)cc4)cc23)c1F [Vemurafenib (PLX4032), Vemurafenib] | – | – | >7.1 | 7 µM | – | CC50 at 24 h [1]: > 50 µM
COc1ccc(CN2CCN(C(c3ccc(F)cc3)c3ccc(F)cc3)CC2)c(OC)c1OC [Lomerizine] | – | >7.8 | – | – | – | CC50 at 24 h [1]: > 100 µM; IC50 [2, 8]: 12.8 µM
Cc1ccc(NC(=O)c2ccc(CN3CCN(C)CC3)cc2)cc1Nc1nc(-c2cccnc2)cs1 [Masitinib] | – | – | 3.2 | – | 47.1 µM | IC50 [2, 12]: 14.9 µM
CC[C@@H](C(=O)[C@@H](C)[C@@H](O)[C@H](C)[C@@H]1O[C@@H]([C@@H](CC)C(=O)O)CC[C@@H]1C)[C@H]1O[C@]2(C=C[C@@H](O)[C@]3(CC[C@@](C)([C@H]4CC[C@](O)(CC)[C@H](C)O4)O3)O2)[C@H](C)C[C@@H]1C [Salinomycin] | 56.3 µM | 97.1 | – | – | – | IC50 [2, 12]: 0.58 µM
CN(Cc1cc(Br)cc(Br)c1N)C1CCCCC1 [Bromhexine hydrochloride] | – | – | >3.5 | – | > 50 µM | Level of intracellular viral RNA [3]: effectively reduced the intracellular RNA; IC50 [2, 12]: 14.4 µM
O=C(CCCl)NCc1ccccc1 [Beclamide] | > 100 µM | >1.4 | – | – | – | IC50 [2, 12]: 72 µM
CCCCOc1cc(C(=O)NCCN(CC)CC)c2ccccc2n1 [Dibucaine hydrochloride] | – | – | >2.3 | 21.6 µM | – | CC50 at 24 h [1]: > 50 µM
Cc1ccc(-c2cc(C(F)(F)F)nn2-c2ccc(S(N)(=O)=O)cc2)cc1 [Celecoxib] | 74.8 µM | 4.3 | – | – | – | IC50 [2, 8]: 17.5 µM
CCOC(=O)C1=C[C@]2(CC)CCCN3CCc4c(n1c1ccccc41)[C@@H]32 [Vinpocetine] | – | – | >5.8 | 8.6 µM | > 50 µM | –
Cc1cccc(CN2CCN(C(c3ccccc3)c3ccc(Cl)cc3)CC2)c1 (centres unmarked) [Meclizine] | > 100 µM | >17.9 | – | – | – | IC50 [2, 8]: 5.6 µM
CCC(CC)COC(=O)[C@H](C)N[P@](=O)(OC[C@H]1O[C@@](C#N)(c2ccc3c(N)ncnn23)[C@H](O)[C@@H]1O)Oc1ccccc1 [Remdesivir] | > 100 µM | >20 | >10 | 5 µM | > 50 µM | IC50 ([2]; Severe acute respiratory syndrome coronavirus 2, Vero, 24 h, Vero cells, 2 MOI, 24 h post-infection, calibration of the assay with reference compound (Fig. 1), read-out: IC50 antiviral activity): 6 µM; IC50 [2, 8]: 5 µM; Inhibition of viral CPE [4]: complete absence of CPE
C=C[C@H]1C[N@@]2CC[C@H]1C[C@@H]2[C@@H](O)c1ccnc2ccc(OC)cc12 [Quinidine gluconate] | – | – | >2.1 | 24.2 µM | > 50 µM | –
CN(C)C(=O)C(CCN1CCC(O)(c2ccc(Cl)cc2)CC1)(c1ccccc1)c1ccccc1 [Loperamide hydrochloride] | – | – | – | – | > 50 µM | –
O=C(O)Cc1cc(I)c(Oc2ccc(O)c(I)c2)c(I)c1 [Tiratricol] | – | – | >10.9 | – | > 50 µM | IC50 [2, 12]: 4.6 µM
CCCCc1nc(Cl)c(CO)n1Cc1ccc(-c2ccccc2-c2nn[nH]n2)cc1 [Losartan] | > 100 µM | >1.4 | – | – | – | IC50 [2, 8]: 72 µM
CC[C@H]1CN2CC[C@H]1C[C@@H]2[C@@H](O)c1ccnc2ccc(OC)cc12 [hydroquinidine] | – | – | >2.1 | 23.8 µM | > 50 µM | –
CC1=NN(c2ccc(C)c(C)c2)C(=O)/C1=N\Nc1cccc(-c2cccc(C(=O)O)c2)c1O [Eltrombopag] | – | – | 21.9 | 2 µM | 43.8 µM | –
CN1CCC(OC(c2ccccc2)c2ccccc2)CC1 [Diphenylpyraline hydrochloride] | – | – | >1.2 | 42.4 µM | > 50 µM | –
CCN(CC)Cc1cc(Nc2ccnc3cc(Cl)ccc23)ccc1O [Amodiaquine] | > 100 µM | >17.2 | >10.9 | 4.6 µM | > 50 µM | IC50 [2, 8]: 5.8 µM
CN1CC2c3ccccc3Oc3ccc(Cl)cc3C2C1 (centres unmarked) [Asenapine] | – | – | – | – | > 50 µM | –
C=C[C@@]1(C)CC(=O)[C@]2(O)[C@@]3(C)[C@@H](O)CCC(C)(C)[C@@H]3[C@H](OC(=O)CCN(C)C)[C@H](OC(C)=O)[C@@]2(C)O1 [NKH 477] | – | – | – | – | – | CC50 [5]: > 50 µM; IC50 [2, 13]: 12.7 µM
CC(CN1c2ccccc2Sc2ccccc21)N(C)C (centres unmarked) [Promethazine hydrochloride] | – | – | >2.6 | 19.1 µM | > 50 µM | –
Cc1ccc(NC(=O)c2ccc(CN3CCN(C)CC3)cc2)cc1Nc1nccc(-c2cccnc2)n1 [Imatinib] | – | – | – | – | > 50 µM | –
COC(=O)[C@H]1[C@H]2C[C@@H]3c4[nH]c5cc(OC)ccc5c4CCN3C[C@H]2C[C@@H](OC(=O)c2cc(OC)c(OC)c(OC)c2)[C@@H]1OC [Reserpine] | – | – | >1.7 | 29.2 µM | > 50 µM | –
CN1CCN(CCCN2c3ccccc3Sc3ccc(S(=O)(=O)N(C)C)cc32)CC1 [Thioproperazine dimesylate] | – | – | – | – | – | CC50 [5]: 41 µM; IC50 [2, 13]: 13.4 µM
CCCCCOc1ccc(-c2cc(-c3ccc(C(=O)N[C@H]4C[C@@H](O)[C@@H](O)NC(=O)[C@@H]5[C@@H](O)[C@@H](C)CN5C(=O)[C@H]([C@H](O)CC(N)=O)NC(=O)[C@H]([C@H](O)[C@@H](O)c5ccc(O)c(OS(=O)(=O)O)c5)NC(=O)[C@@H]5C[C@@H](O)CN5C(=O)[C@H]([C@@H](C)O)NC4=O)cc3)no2)cc1 [Micafungin] (X1-[Orn(4R-OH,5R-OH)]T[Hyp][hTyr(3S-OH,4S-OH,3'-OSO3H)][Gln(3R-OH)][Pro(3S-OH,4S-Me)]; lactam 1-C) | > 100 µM | >18.1 | >3.9 | – | > 50 µM | IC50 ([2]; Severe acute respiratory syndrome coronavirus 2, Vero, 24 h, read-out: IC50 antiviral activity, Vero cells, MOI 2, 24 h post-infection, compounds from primary screening, 100 μM to 0.16 μM): 5.5 µM; IC50 ([2]; Severe acute respiratory syndrome coronavirus 2, Vero, 24 h, read-out: IC50 antiviral activity, Vero cells, MOI 2, 24 h post-infection, compounds from secondary screening, 0.08–50 μM): 12.9 µM
CC(C)N(CCCCOCC(=O)NS(C)(=O)=O)c1cnc(-c2ccccc2)c(-c2ccccc2)n1 [Selexipag] | – | – | >5.9 | 8.5 µM | – | CC50 at 24 h [1]: > 50 µM
CCN(CC)C(C)CN1c2ccccc2Sc2ccccc21 (centres unmarked) [Ethopropazine hydrochloride] | – | – | >2.5 | 20.3 µM | > 50 µM | –
